30 compounds from patent publication US20250282735A1, “BICYCLE COMPOUNDS AS TEAD INHIBITOR” (DONG-A ST CO., LTD., priority 2022, published 2025) can be followed below.

The subject of this test is TEAD reporter-containing human breast cancer cell line MCF7. As to the kind of experiment: TEAD reporter (luciferase) assay. The format is cell-based. The conditions noted are these: TEAD reporter MCF7 cells, 24 hours treatment, 1% serum media. How it is done:
The TEAD reporter-containing human breast cancer cell line MCF7 (60618, BPS bioscience) was cultured according to the manufacturer's instructions. Cells were plated in 96-well white plates at a density of 30,000 per well and incubated overnight. The following day cells were treated with small molecules in 1% serum media (0.1% v/v DMSO). After 24 hours of the treatment, cell viability was evaluated by using CCK-8 reagent (CK04, Dojindo) and measuring absorbance at 450 nm. Then, the assay for luciferase activity was performed using Dual-Glo® Luciferase Assay System (Promega, E2940) following the manufacturer's instructions. Luminescence intensity was measured and the potency of the compounds was determined by IC50 value generated from non-linear regression analysis of the dose-response curves.
IC50 for luciferase activity are shown in the Table 1 below and designated within the following ranges. [+++: ≤0.1 μM, ++: >0.1 μM to ≤1 μM, +: >1 μM to ≤10 μM, −: >10 μM]

For `C=CC(=O)Nc1ccc2c(c1)c(/C=C/c1ccc(Cl)cc1)nn2C(C)C` [Compound 6, (E)-N-(3-(4-Chlorostyryl)-1-isopropyl-1H-indazol-5-yl)acrylamide], the IC50 is > 10000 nM.
The compound `C=CC(=O)Nc1ccc2c(c1)c(/C=C/C1CCC(F)(F)CC1)nn2C1CCCC1` [Compound 7, (E)-N-(1-Cyclopentyl-3-(2-(4,4-difluorocyclohexyl)vinyl)-1H-indazol-5-yl)acrylamide] gave an IC50 of 100 to 1000 nM.
With `C=CC(=O)Nc1ccc2c(c1)c(/C=C/c1ccc(Cl)cc1)nn2C1CCCC1` [Compound 8, (E)-N-(3-(4-Chlorostyryl)-1-cyclopentyl-1H-indazol-5-yl)acrylamide] the figure was 1000 to 10000 nM; with `C=CC(=O)Nc1cnc2c(c1)c(/C=C/C1CCC(F)(F)CC1)cn2C1CCCC1` [Compound 9, (E)-N-(1-Cyclopentyl-3-(2-(4,4-difluorocyclohexyl)vinyl)-1H-pyrrolo[2,3-b]pyridin-5-yl)acrylamide], ≤ 100 nM; with `C=CC(=O)Nc1ccc2c(c1)c(/C=C/c1ccc(Cl)cc1)cn2C1CCCC1` [Compound 11, (E)-N-(3-(4-Chlorostyryl)-1-cyclopentyl-1H-indol-5-yl)acrylamide], 1000 to 10000 nM.
As for `C=CC(=O)Nc1ccc2c(/C=C/c3ccc(Cl)cc3)cn(C)c2c1` [Compound 12, (E)-N-(3-(4-Chlorostyryl)-1-methyl-1H-indol-6-yl)acrylamide], the half-maximal inhibitory concentration (IC50) lay within 100 to 1000 nM.
In the case of `C=CC(=O)Nc1cnc2c(c1)c(/C=C/c1ccc(Cl)cc1)cn2C(C)C` [Compound 20, (E)-N-(3-(4-Chlorostyryl)-1-isopropyl-1H-pyrrolo[2,3-b]pyridin-5-yl)acrylamide] it was 1000 to 10000 nM.
With `C=CC(=O)Nc1ccc2c(c1)c(/C=C/c1ccc(F)cc1)cn2C(C)C` [Compound 29, (E)-N-(3-(4-Fluorostyryl)-1-isopropyl-1H-indol-5-yl)acrylamide] the figure was > 10000 nM; with `C=CC(=O)Nc1cc(F)c2c(c1)c(/C=C/C1CCC(F)(F)CC1)cn2C(C)C` [Compound 38, (E)-N-(3-(2-(4,4-Difluorocyclohexyl)vinyl)-7-fluoro-1-isopropyl-1H-indol-5-yl)acrylamide], 1000 to 10000 nM.
Take `C=CC(=O)Nc1cc(F)c2c(c1)c(/C=C/c1ccc(Cl)cc1)cn2C(C)C` [Compound 39, (E)-N-(3-(4-Chlorostyryl)-7-fluoro-1-isopropyl-1H-indol-5-yl)acrylamide]: the concentration for half-maximal inhibition (IC50) is > 10000 nM.
With `C=CC(=O)Nc1cnc2c(c1)c(/C=C/c1ccccc1)cn2C` [Compound 45, (E)-N-(1-Methyl-3-styryl-1H-pyrrolo[2,3-b]pyridin-5-yl)acrylamide] the figure was 100 to 1000 nM; with `C=CC(=O)Nc1cnc2c(c1)c(/C=C/c1cccc(OC)c1)cn2C` [Compound 48, (E)-N-(3-(3-Methoxystyryl)-1-methyl-1H-pyrrolo[2,3-b]pyridin-5-yl)acrylamide], 1000 to 10000 nM.
As for `C=CC(=O)Nc1cnc2c(c1)c(-c1cccc(C(F)(F)F)c1)cn2C` [Compound 54, N-(1-Methyl-3-(3-(trifluoromethyl)phenyl)-1H-pyrrolo[2,3-b]pyridin-5-yl)acrylamide], the 50% inhibitory concentration (IC50) is ≤ 100 nM.
In the case of `C=CC(=O)Nc1cnc2c(c1)c(-c1ccc(SC)cc1)cn2C` [Compound 55, N-(1-Methyl-3-(4-(methylthio)phenyl)-1H-pyrrolo[2,3-b]pyridin-5-yl)acrylamide] it was 100 to 1000 nM; in that of `C=CC(=O)Nc1cnc2c(c1)c(-c1cccc(C#N)c1)cn2C` [Compound 56, N-(3-(3-Cyanophenyl)-1-methyl-1H-pyrrolo[2,3-b]pyridin-5-yl)acrylamide], 1000 to 10000 nM; in that of `C=CC(=O)Nc1cnc2c(c1)c(-c1ccc(C#N)cc1)cn2C` [Example 57, N-(3-(4-Cyanophenyl)-1-methyl-1H-pyrrolo[2,3-b]pyridin-5-yl)acrylamide], 1000 to 10000 nM.
As to `C=CC(=O)Nc1cnc2c(c1)c(/C=C/C1CCOCC1)cn2C` [Example 58, (E)-N-(1-Methyl-3-(2-(tetrahydro-2H-pyran-4-yl)vinyl)-1H-pyrrolo[2,3-b]pyridin-5-yl)acrylamide], the IC50 lay within 100 to 1000 nM.
With `C=CC(=O)Nc1cnc2c(c1)c(/C=C/c1ccsc1)cn2C` [Example 59, (E)-N-(1-Methyl-3-(2-(thiophen-3-yl)vinyl)-1H-pyrrolo[2,3-b]pyridin-5-yl)acrylamide] the figure was 100 to 1000 nM; with `C=CC(=O)Nc1cnc2c(c1)c(/C=C/C1CC1)cn2C` [Example 60, (E)-N-(3-(2-Cyclopropylvinyl)-1-methyl-1H-pyrrolo[2,3-b]pyridin-5-yl)acrylamide], 1000 to 10000 nM; with `C=CC(=O)Nc1cnc2c(c1)c(/C=C/c1ccc3c(c1)OCCO3)cn2C` [Example 61, (E)-N-(3-(2-(2,3-Dihydrobenzo[b][1,4]dioxin-6-yl)vinyl)-1-methyl-1H-pyrrolo[2,3-b]pyridin-5-yl)acrylamide], 1000 to 10000 nM.
With `C=CC(=O)Nc1cnc2c(c1)c(/C=C/C1CC1C(=O)OCC)cn2C` (stereo not drawn) [Example 62, Ethyl (E)-2-(2-(5-acrylamido-1-methyl-1H-pyrrolo[2,3-b]pyridin-3-yl)vinyl)cyclopropane-1-carboxylate] the figure was > 10000 nM; with `C=CC(=O)N(CC(=O)O)c1cnc2c(c1)c(/C=C/c1ccc(Cl)cc1)cn2C` [Example 65, (E)-N-Acryloyl-N-(3-(4-chlorostyryl)-1-methyl-1H-pyrrolo[2,3-b]pyridin-5-yl)glycine], > 10000 nM.
Regarding `C=CC(=O)N(Cc1nn[nH]n1)c1cnc2c(c1)c(/C=C/c1ccc(Cl)cc1)cn2C` [Example 69, (E)-N-((2H-Tetrazol-5-yl)methyl)-N-(3-(4-chlorostyryl)-1-methyl-1H-pyrrolo[2,3-b]pyridin-5-yl)acrylamide], the 50% inhibitory concentration (IC50) fell in the range of 1000 to 10000 nM.
Regarding `C=CC(=O)Nc1ccc2c(c1)c(/C=C/c1ccc(Cl)cc1)cn2C(C)=O` [Example 75, (E)-N-(1-Acetyl-3-(4-chlorostyryl)-1H-indol-5-yl)acrylamide], the IC50 was > 10000 nM.
Consider `C=CC(=O)Nc1cnc2ccn(Cc3ccc(C(F)(F)F)cc3)c2c1` [Example 76, N-(1-(4-(Trifluoromethyl)benzyl)-1H-pyrrolo[3,2-b]pyridin-6-yl)acrylamide], for which the IC50 was ≤ 100 nM.
Regarding `C=CC(=O)Nc1cnc2ccn(Cc3ccc(F)cc3)c2c1` [Example 78, N-(1-(4-Fluorobenzyl)-1H-pyrrolo[3,2-b]pyridin-6-yl)acrylamide], the half-inhibitory concentration (IC50) lay within 100 to 1000 nM.
As to `C=CC(=O)Nc1cnc2c(c1)c(/C=C/c1cccs1)cn2C` [Example 82, (E)-N-(1-Methyl-3-(2-(thiophen-2-yl)vinyl)-1H-pyrrolo[2,3-b]pyridin-5-yl)acrylamide], the IC50 fell in the range of 100 to 1000 nM.
In turn, `C=CC(=O)Nc1cnc2c(c1)c(-c1cccc(CCC3CCC(F)(F)CC3)c1)cn2C` [Example 86, N-(3-(3-(2-(4,4-Difluorocyclohexyl)ethyl)phenyl)-1-methyl-1H-pyrrolo[2,3-b]pyridin-5-yl)acrylamide] came in with a half-inhibitory concentration (IC50) of 100 to 1000 nM.
In turn, `C=CC(=O)Nc1cnc2c(c1)c(-c1ccc(OC)cc1)cn2C` [Example 90, N-(3-(4-Methoxyphenyl)-1-methyl-1H-pyrrolo[2,3-b]pyridin-5-yl)acrylamide] yielded a concentration for half-maximal inhibition (IC50) of 1000 to 10000 nM.
Take `C=CC(=O)Nc1cnc2c(c1)c(-c1cccc(Oc3ccccc3)c1)cn2C` [Example 94, N-(1-Methyl-3-(3-phenoxyphenyl)-1H-pyrrolo[2,3-b]pyridin-5-yl)acrylamide]: the IC50 was in the range of 100 to 1000 nM.

Usually IC50 stands for the point on the concentration scale where inhibition reaches its midpoint.
